{
  "source": "PubChem BioAssay AID2060884",
  "about": "(Molecular Pharmacology Branch, DTP, NCI, 2025)",
  "system": "NCI-H929 complex spheroids, viability % test/control",
  "test": "Anticancer human tumor NCI-H929 cell line growth inhibition [RAS];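 also: compound exposure lasted seven days before viability was read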;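 as to viability, T/C: 100% = DMSO vehicle control viability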",
  "settings": "for IC50: curve of first compound; for viability, T/C: stronger effect = lower value",
  "in_short": "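Agents were tested in combination matrices in half-log decrements from a top concentration at or near clinical Cmax (10 microM if undetermined). Targets were multi-cell spheroids of tumour lines plus HUVEC and MSC stromal cells.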",
  "key": {"[1]": {"settings": "second compound 0.000949 µM, first compound 0.0316 µM"}, "[2]": {"settings": "second compound 0.000949 µM, first compound 0.1 µM"}, "[3]": {"settings": "second compound 0.000949 µM, first compound 0.316 µM"}, "[4]": {"settings": "second compound 0.000949 µM, first compound 1 µM"}, "[5]": {"settings": "second compound 0.003 µM, first compound 0.0316 µM"}, "[6]": {"settings": "second compound 0.003 µM, first compound 0.1 µM"}, "[7]": {"settings": "second compound 0.003 µM, first compound 0.316 µM"}, "[8]": {"settings": "second compound 0.003 µM, first compound 1 µM"}, "[9]": {"settings": "second compound 0.00949 µM, first compound 0.0316 µM"}, "[10]": {"settings": "second compound 0.00949 µM, first compound 0.1 µM"}, "[11]": {"settings": "second compound 0.00949 µM, first compound 0.316 µM"}, "[12]": {"settings": "second compound 0.00949 µM, first compound 1 µM"}, "[13]": {"settings": "second compound 0.03 µM, first compound 0.0316 µM"}, "[14]": {"settings": "second compound 0.03 µM, first compound 0.1 µM"}, "[15]": {"settings": "second compound 0.03 µM, first compound 0.316 µM"}, "[16]": {"settings": "second compound 0.03 µM, first compound 1 µM"}, "[17]": {"settings": "second compound 0.0949 µM, first compound 0.0316 µM"}, "[18]": {"settings": "second compound 0.0949 µM, first compound 0.1 µM"}, "[19]": {"settings": "second compound 0.0949 µM, first compound 0.316 µM"}, "[20]": {"settings": "second compound 0.0949 µM, first compound 1 µM"}, "[21]": {"settings": "second compound 0.3 µM, first compound 0.0316 µM"}, "[22]": {"settings": "second compound 0.3 µM, first compound 0.1 µM"}, "[23]": {"settings": "second compound 0.3 µM, first compound 0.316 µM"}, "[24]": {"settings": "second compound 0.3 µM, first compound 1 µM"}},
  "data": [
    {"compound": "O=C(c1ccc(F)c(F)c1Nc1ccc(I)cc1F)N1CC(O)([C@@H]2CCCCN2)C1", "note": "+ CCn1c(-c2cc(N3CCN(C)CC3)cnc2C(C)OC)c2c3cc(ccc31)-c1csc(n1)CC(NC(=O)C1CC1C)C(=O)N1CCCC(N1)C(=O)OCC(C)(C)C2", "values": [
      {"measurement": "IC50", "setting": "second compound 0.000949 µM", "value": 0.625, "unit": "µM"},
      {"measurement": "IC50", "setting": "second compound 0.003 µM", "value": 0.29, "unit": "µM"},
      {"measurement": "IC50", "setting": "second compound 0.00949 µM", "value": 0.069, "unit": "µM"},
      {"measurement": "IC50", "setting": "second compound 0.03 µM", "value": "< 0.00316", "unit": "µM"},
      {"measurement": "IC50", "setting": "second compound 0.0949 µM", "value": "< 0.00316", "unit": "µM"},
      {"measurement": "IC50", "setting": "second compound 0.3 µM", "value": "< 0.00316", "unit": "µM"},
      {"measurement": "viability, T/C", "setting": "second compound 0.000949 µM, first compound 0.00316 µM", "value": 93.3, "unit": "%"},
      {"measurement": "viability, T/C", "setting": "second compound 0.000949 µM, first compound 0.01 µM", "value": 92.5, "unit": "%"},
      {"measurement": "viability, T/C", "setting": "[1]", "value": 103, "unit": "%"},
      {"measurement": "viability, T/C", "setting": "[2]", "value": 108, "unit": "%"},
      {"measurement": "viability, T/C", "setting": "[3]", "value": 97.3, "unit": "%"},
      {"measurement": "viability, T/C", "setting": "[4]", "value": 17.4, "unit": "%"},
      {"measurement": "viability, T/C", "setting": "second compound 0.003 µM, first compound 0.00316 µM", "value": 90.8, "unit": "%"},
      {"measurement": "viability, T/C", "setting": "second compound 0.003 µM, first compound 0.01 µM", "value": 101, "unit": "%"},
      {"measurement": "viability, T/C", "setting": "[5]", "value": 111, "unit": "%"},
      {"measurement": "viability, T/C", "setting": "[6]", "value": 119, "unit": "%"},
      {"measurement": "viability, T/C", "setting": "[7]", "value": 45.5, "unit": "%"},
      {"measurement": "viability, T/C", "setting": "[8]", "value": 7.02, "unit": "%"},
      {"measurement": "viability, T/C", "setting": "second compound 0.00949 µM, first compound 0.00316 µM", "value": 110, "unit": "%"},
      {"measurement": "viability, T/C", "setting": "second compound 0.00949 µM, first compound 0.01 µM", "value": 117, "unit": "%"},
      {"measurement": "viability, T/C", "setting": "[9]", "value": 113, "unit": "%"},
      {"measurement": "viability, T/C", "setting": "[10]", "value": 19.9, "unit": "%"},
      {"measurement": "viability, T/C", "setting": "[11]", "value": 6.27, "unit": "%"},
      {"measurement": "viability, T/C", "setting": "[12]", "value": 3.63, "unit": "%"},
      {"measurement": "viability, T/C", "setting": "second compound 0.03 µM, first compound 0.00316 µM", "value": 31.8, "unit": "%"},
      {"measurement": "viability, T/C", "setting": "second compound 0.03 µM, first compound 0.01 µM", "value": 15.7, "unit": "%"},
      {"measurement": "viability, T/C", "setting": "[13]", "value": 4.87, "unit": "%"},
      {"measurement": "viability, T/C", "setting": "[14]", "value": 2.83, "unit": "%"},
      {"measurement": "viability, T/C", "setting": "[15]", "value": 2.77, "unit": "%"},
      {"measurement": "viability, T/C", "setting": "[16]", "value": 2.07, "unit": "%"},
      {"measurement": "viability, T/C", "setting": "second compound 0.0949 µM, first compound 0.00316 µM", "value": 4.34, "unit": "%"},
      {"measurement": "viability, T/C", "setting": "second compound 0.0949 µM, first compound 0.01 µM", "value": 3.41, "unit": "%"},
      {"measurement": "viability, T/C", "setting": "[17]", "value": 1.75, "unit": "%"},
      {"measurement": "viability, T/C", "setting": "[18]", "value": 1.48, "unit": "%"},
      {"measurement": "viability, T/C", "setting": "[19]", "value": 1.32, "unit": "%"},
      {"measurement": "viability, T/C", "setting": "[20]", "value": 0.89, "unit": "%"},
      {"measurement": "viability, T/C", "setting": "second compound 0.3 µM, first compound 0.00316 µM", "value": 3, "unit": "%"},
      {"measurement": "viability, T/C", "setting": "second compound 0.3 µM, first compound 0.01 µM", "value": 1.97, "unit": "%"},
      {"measurement": "viability, T/C", "setting": "[21]", "value": 1.19, "unit": "%"},
      {"measurement": "viability, T/C", "setting": "[22]", "value": 1.05, "unit": "%"},
      {"measurement": "viability, T/C", "setting": "[23]", "value": 1.12, "unit": "%"},
      {"measurement": "viability, T/C", "setting": "[24]", "value": 0.68, "unit": "%"}
    ]},
    {"compound": "NC1c2ccccc2OC12CCN(c1cnc3c(N4CCCc5ncccc54)n[nH]c3n1)CC2", "note": "(centres undefined) + CCn1c(-c2cc(N3CCN(C)CC3)cnc2C(C)OC)c2c3cc(ccc31)-c1csc(n1)CC(NC(=O)C1CC1C)C(=O)N1CCCC(N1)C(=O)OCC(C)(C)C2", "values": [
      {"measurement": "IC50", "setting": "second compound 0.000949 µM", "value": "> 10", "unit": "µM"},
      {"measurement": "IC50", "setting": "second compound 0.003 µM", "value": "> 10", "unit": "µM"},
      {"measurement": "IC50", "setting": "second compound 0.00949 µM", "value": "> 10", "unit": "µM"},
      {"measurement": "IC50", "setting": "second compound 0.03 µM", "value": "< 0.0316", "unit": "µM"},
      {"measurement": "IC50", "setting": "second compound 0.0949 µM", "value": "< 0.0316", "unit": "µM"},
      {"measurement": "IC50", "setting": "second compound 0.3 µM", "value": "< 0.0316", "unit": "µM"},
      {"measurement": "viability, T/C", "setting": "[1]", "value": 107, "unit": "%"},
      {"measurement": "viability, T/C", "setting": "[2]", "value": 104, "unit": "%"},
      {"measurement": "viability, T/C", "setting": "[3]", "value": 108, "unit": "%"},
      {"measurement": "viability, T/C", "setting": "[4]", "value": 108, "unit": "%"},
      {"measurement": "viability, T/C", "setting": "second compound 0.000949 µM, first compound 3.16 µM", "value": 113, "unit": "%"},
      {"measurement": "viability, T/C", "setting": "second compound 0.000949 µM, first compound 10 µM", "value": 78.6, "unit": "%"},
      {"measurement": "viability, T/C", "setting": "[5]", "value": 107, "unit": "%"},
      {"measurement": "viability, T/C", "setting": "[6]", "value": 108, "unit": "%"},
      {"measurement": "viability, T/C", "setting": "[7]", "value": 109, "unit": "%"},
      {"measurement": "viability, T/C", "setting": "[8]", "value": 111, "unit": "%"},
      {"measurement": "viability, T/C", "setting": "second compound 0.003 µM, first compound 3.16 µM", "value": 109, "unit": "%"},
      {"measurement": "viability, T/C", "setting": "second compound 0.003 µM, first compound 10 µM", "value": 80.9, "unit": "%"},
      {"measurement": "viability, T/C", "setting": "[9]", "value": 121, "unit": "%"},
      {"measurement": "viability, T/C", "setting": "[10]", "value": 128, "unit": "%"},
      {"measurement": "viability, T/C", "setting": "[11]", "value": 128, "unit": "%"},
      {"measurement": "viability, T/C", "setting": "[12]", "value": 125, "unit": "%"},
      {"measurement": "viability, T/C", "setting": "second compound 0.00949 µM, first compound 3.16 µM", "value": 121, "unit": "%"},
      {"measurement": "viability, T/C", "setting": "second compound 0.00949 µM, first compound 10 µM", "value": 87.8, "unit": "%"},
      {"measurement": "viability, T/C", "setting": "[13]", "value": 15.4, "unit": "%"},
      {"measurement": "viability, T/C", "setting": "[14]", "value": 13.8, "unit": "%"},
      {"measurement": "viability, T/C", "setting": "[15]", "value": 14.9, "unit": "%"},
      {"measurement": "viability, T/C", "setting": "[16]", "value": 12.7, "unit": "%"},
      {"measurement": "viability, T/C", "setting": "second compound 0.03 µM, first compound 3.16 µM", "value": 18.3, "unit": "%"},
      {"measurement": "viability, T/C", "setting": "second compound 0.03 µM, first compound 10 µM", "value": 12, "unit": "%"},
      {"measurement": "viability, T/C", "setting": "[17]", "value": 3.25, "unit": "%"},
      {"measurement": "viability, T/C", "setting": "[18]", "value": 2.4, "unit": "%"},
      {"measurement": "viability, T/C", "setting": "[19]", "value": 2.09, "unit": "%"},
      {"measurement": "viability, T/C", "setting": "[20]", "value": 2.07, "unit": "%"},
      {"measurement": "viability, T/C", "setting": "second compound 0.0949 µM, first compound 3.16 µM", "value": 1.88, "unit": "%"},
      {"measurement": "viability, T/C", "setting": "second compound 0.0949 µM, first compound 10 µM", "value": 0.76, "unit": "%"},
      {"measurement": "viability, T/C", "setting": "[21]", "value": 1.75, "unit": "%"},
      {"measurement": "viability, T/C", "setting": "[22]", "value": 1.24, "unit": "%"},
      {"measurement": "viability, T/C", "setting": "[23]", "value": 0.73, "unit": "%"},
      {"measurement": "viability, T/C", "setting": "[24]", "value": 0.89, "unit": "%"},
      {"measurement": "viability, T/C", "setting": "second compound 0.3 µM, first compound 3.16 µM", "value": 1.51, "unit": "%"},
      {"measurement": "viability, T/C", "setting": "second compound 0.3 µM, first compound 10 µM", "value": 0.19, "unit": "%"}
    ]}
  ]
}
